Test results taken from paper PMC11123929, “A Comparative Study and Prediction of the Ex Vivo Permeation of Six Vaginally Administered Drugs across Five Artificial Membranes and Vaginal Tissue” (Molecules, 2024).

Legend:
[1] = Ex vivo permeability in Franz diffusion cell, cow vaginal tissue
Description: Ex vivo experiments were conducted on cow vaginal mucosa sourced from a local slaughterhouse. Tissues with an exposure area of 0.19 cm^2 were placed in a Franz diffusion cell with the epithelial mucosa side facing the donor compartment. In the donor compartment, 200 μL of API’s solution in VFS (pH 4.5) was added (37 °C ± 0.2 °C), while the acceptor was filled with 5 mL of PBS at pH 7.4 (constant stirring at 100 rpm).
Samples were centrifuged at 2000× g for 10 min, and supernatants were analyzed using HPLC as described in Section 4.1.
The procedure for extracting the drug from the tissue was as follows: after the experiment was completed, each tissue was carefully removed from the Franz cell and immersed in 5 mL of methanol. It was then sonicated for 30 min, followed by 10 min of vertexing, another 30 min in the sonicator, and 10 min of vertexing. Finally, the samples were centrifuged for 20 min at 5000× g, and the supernatant was collected for analysis.

[2] = cited from earlier work; for PSA: ref Pubchem [1]
[3] = Franz diffusion cell in vitro permeability, hybrid IPM-cellulose membrane
Description: (§1) There are many membranes available on the market that are grouped as cellulosic and polymeric. Taking into account those that are more convenient and economical, two synthetic membranes and their combinations were used. Synthetic PVDF (polyvinylidene difluoride) and cellulose acetate (Table S2) membranes were pre-treated according to the supplier’s instructions. Cellulose membranes were further treated to acquire their lipophilic properties. Thus, they were placed on a flat glass surface and completely coated with IPM (isopropyl myristate) solution. The cellulose membrane was allowed to incubate in the IPM solution for 30 min. After impregnation, the excess IPM solution was drained off, and the membrane was used for the in vitro experiments. To ensure that the procedure was carried out successfully, the cellulose membrane was weighed before and after pretreatment.
(§2) The in vitro permeability profile of each compound was evaluated using the Franz diffusion cell setup (PermeGear, Hellertown, PA, USA). Five distinct artificial membranes were placed between the donor (upper) and receiver (lower) chambers of cells, with an effective diffusion area of 4.9 cm^2 and a receptor volume of 20 mL; 1 mL of APIs solutions were placed in the donor compartment, which was sealed with Parafilm® to prevent any loss of moisture. The acceptor contained degassed PBS at pH 7.4. The procedure was performed under agitation at 90 rpm and at a temperature of 37 °C ± 0.2 °C.
(§3) At specified intervals (t = 2, 3, 4, 6, and 8 h), 0.5 mL of the samples was taken from the receptor compartment and replaced with an equal volume of freshly prewarmed receptor medium. The concentration of each API was quantified using the appropriate HPLC method (Section 4.1) without sample pretreatment. Blanks containing PBS were pretreated with the same procedure. Each sample was analyzed in triplicate, and its cumulative release over time was plotted (Figure 2). The steady-state flux (Jss) was determined by plotting the permeation of the API per unit area (μg/cm^2) against time (h) and calculating the slope of the linear portion of the resulting line. Equation (1) was applied to calculate the apparent permeability coefficient (cm/h) (Paap).

[4] = Franz diffusion cell in vitro permeability, IPM-impregnated cellulose membrane; conditions: for Cumulative Amount Permeated, Impregnated IPM: after 8 h, mean ± SD (n = 3); for Papp at 8 h: pH 7.4; for permeation order of the substance, Impregnated IPM: rank among the six drugs by cumulative amount after 8 h
Description: as §1, §2, §3

[5] = Franz diffusion cell in vitro permeability, PVDF membrane; conditions: for Cumulative Amount Permeated, PVDF (Hydrophobic): after 8 h, mean ± SD (n = 3); for Papp at 8 h: pH 7.4; for permeation order of the substance, PVDF (Hydrophobic): rank among the six drugs by cumulative amount after 8 h
Description: as §1, §2, §3

[6] = Retention on reversed-phase C4 HPLC column as indication of tissue penetration; format: physicochemical; conditions: ACE C4 150 × 4.6 mm, MeOH-H2O 10:90, 0.5 mL/min, 40 °C
Description: Under the given conditions, it was assumed that the stationary phase simulates the tissue while the aqueous mobile phase represents the surrounding space. […] The analysis was carried out under isocratic conditions with a flow rate of 0.5 mL/min and a mobile phase consisting of MeOH-H2O at 10:90 (v/v).

[7] = Franz diffusion cell in vitro permeability, cellulose membrane; conditions: for Cumulative Amount Permeated, Cellulose (Hydrophilic): after 8 h, mean ± SD (n = 3); for Papp (experimental, in vitro): cellulose membrane, Table 6, compared with PLS prediction; for Papp at 8 h: pH 7.4; for permeation order of the substance, Cellulose (Hydrophilic): rank among the six drugs by cumulative amount after 8 h
Description: as §1, §2, §3

[8] = Franz diffusion cell in vitro permeability, hybrid PVDF-cellulose membrane
Description: as §1, §2
as §3, with “Blanks containing PBS were pretreated with the same procedure.” left out, “Equation (1) was applied to calculate the apparent permeability coefficient (cm/h) (Paap).” left out

[9] = cited from earlier work
[10] = rank among the six drugs by cumulative amount after 8 h

SMILES	tissue permeability / diffusion profile in vaginal tissue, ex vivo [1]	Acceptor's Mass ([1]; cow, 8 h)	Final Mass Donor ([1]; cow, 8 h)	Tissue Extraction ([1]; cow, 8 h)	diffusion profile in cellulose-IPM membrane [3]	Cumulative Amount Permeated, Impregnated IPM [4] [μg/cm^2]	Papp at 8 h [4] [nm/s]	permeation order of the substance, Impregnated IPM [4]	Cumulative Amount Permeated, PVDF (Hydrophobic) [5] [μg/cm^2]	Papp at 8 h [5] [nm/s]	permeation order of the substance, PVDF (Hydrophobic) [5]	Retention time (tr) in column C4 [6] [min]	Papp value / permeability / diffusion profile in cellulose membrane [7]	Cumulative Amount Permeated, Cellulose (Hydrophilic) [7] [μg/cm^2]	Papp (experimental, in vitro) [7] [nm/s]	Papp at 8 h [7] [nm/s]	permeation order of the substance, Cellulose (Hydrophilic) [7]	Tangible aqueous solubility (descriptive term) ([2]; ref European Pharmacopeia)	PSA [2] [Å2]	other results
CCN(CC)CC(=O)Nc1c(C)cccc1C [LIDO, lidocaine]		0.53 (±0.09) mg	0.9 (±0.1) mg	0.5 (±0.09) mg																
Cc1ncc([N+](=O)[O-])n1CCO [METRO, metronidazole]		0.65 (±0.08) mg	0.01 (±0.001) mg	1.4 (±0.2) mg		2373.1	38.9	1st	2008.4	25	1st	3.93		3976.4	63.9	63.9	1st	very soluble	83.87	Papp at 8 h, 10 mg/mL ([1]; cow): 128 nm/s; Cumulative Amount Permeated, Tissue ([1]; cow, 8 h, 10 mg/mL): 3419.5 μg/cm^2; permeation order of the substance, Tissue ([1]; cow, 8 h, 10 mg/mL): 1st; Tangible aqueous solubility (value in brackets) ([2]; ref European Pharmacopeia): 5.92 mg/mL; Cumulative Amount Permeated, IPM-Cellulose ([3]; after 8 h, mean ± SD (n = 3)): 307.3 μg/cm^2; Papp at 8 h ([3]; pH 7.4): 5.56 nm/s; permeation order of the substance, IPM-Cellulose [3, 10]: 3rd; Cumulative Amount Permeated, PVDF-Cellulose ([8]; after 8 h, mean ± SD (n = 3)): 370.2 μg/cm^2; Papp at 8 h ([8]; pH 7.4): 11.1 nm/s; permeation order of the substance, PVDF-Cellulose [8, 10]: 3rd
CCCCCCCCCc1ccc(OCCOCCOCCOCCOCCOCCOCCOCCOCCO)cc1 [NONO, nonoxynol-9]	does not penetrate the vaginal tissue at all and zero				zero				1752.2		2nd	39.48	negligible	20.1	0.556		4th	miscible with H2O	103.3	Tissue Extraction ([1]; drug extracted from tissue with methanol after the experiment): 0.15 (±0.05) mg; Acceptor's Mass ([1]; ex vivo, end of experiment): 0 mg; Final Mass Donor ([1]; ex vivo, end of experiment, mean ± SD (n = 3)): 1.85 (±0.2) mg
O=[N+]([O-])OCC(CO[N+](=O)[O-])O[N+](=O)[O-] [nitroglycerin]																				log P [9]: 1.6

More lines, main results first:

tissue permeability / diffusion profile in vaginal tissue, ex vivo [1]	Acceptor's Mass ([1]; cow, 8 h)	Final Mass Donor ([1]; cow, 8 h)	Tissue Extraction ([1]; cow, 8 h)	diffusion profile in cellulose-IPM membrane [3]	Cumulative Amount Permeated, Impregnated IPM [4] [μg/cm^2]	Papp at 8 h [4] [nm/s]	permeation order of the substance, Impregnated IPM [4]	Cumulative Amount Permeated, PVDF (Hydrophobic) [5] [μg/cm^2]	Papp at 8 h [5] [nm/s]	permeation order of the substance, PVDF (Hydrophobic) [5]	Retention time (tr) in column C4 [6] [min]	Papp value / permeability / diffusion profile in cellulose membrane [7]	Cumulative Amount Permeated, Cellulose (Hydrophilic) [7] [μg/cm^2]	Papp (experimental, in vitro) [7] [nm/s]	Papp at 8 h [7] [nm/s]	permeation order of the substance, Cellulose (Hydrophilic) [7]	SMILES	Tangible aqueous solubility (descriptive term) ([2]; ref European Pharmacopeia)	PSA [2] [Å2]	other results
zero	0 mg	0.2 (±0.01) mg	0.01 (±0.001) mg	zero	0.92	0.389	4th	15.3	0.417	6th	9.94	negligible	1.7	2.39	2.39	5th	Clc1ccc(COC(Cn2ccnc2)c2ccc(Cl)cc2Cl)cc1 (stereo not shown) [ECO, econazole]	very slightly soluble	27	
zero	0 mg	0.26 (±0.02) mg	0 mg	zero				33.4	8.06	5th	10.2	negligible and zero		0			Clc1ccc(COC(Cn2ccnc2)c2ccc(Cl)cc2Cl)c(Cl)c1 (stereo not shown) [MICO, miconazole]	very slightly soluble	27	
